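96-well plates; 48 h exposure; 5 concentrations. Endpoints by linear interpolation between flanking doses. Not reached: highest tested concentration assigned. GI50: concentration for 50% inhibition of growth. TGI: total growth inhibition.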
Key:
Experiment in all cases: growth of human tumour cells (NCI), 48 h
[1] = system: SNB-19 CNS
[2] = system: A498 renal
[3] = system: TK-10 renal
[4] = system: RXF 393 renal
[5] = system: COLO 205 colon
[6] = system: SK-MEL-2 melanoma
[7] = system: ACHN renal
[8] = system: K-562 leukemia
[9] = system: SF-539 CNS
[10] = system: UACC-257 melanoma

Compound | GI50 [1] [µM] | TGI [1] [µM] | GI50 [2] [µM] | TGI [2] [µM] | GI50 [3] [µM] | TGI [3] [µM] | GI50 [4] [µM] | TGI [4] [µM] | GI50 [5] [µM] | TGI [5] [µM] | GI50 [6] [µM] | TGI [6] [µM] | GI50 [7] [µM] | TGI [7] [µM] | GI50 [8] [µM] | TGI [8] [µM] | GI50 [9] [µM] | TGI [9] [µM] | GI50 [10] [µM] | TGI [10] [µM]
CCC[CH2][Sn]([CH2]CCC)([S]C1=NCCS1)[S]C1=NCCS1 | 0.3 | 1.12 | 0.507 | 1.31 | 0.39 | 1.11 | 0.0846 | 0.301 | 0.331 | 1.5 | 0.194 | 0.566 | 0.368 | 1.31 | 0.0655 | 1.05 | 0.164 | 0.449 | 0.323 | 1.44
C[C@]12CCC(=O)C=C1CC[C@@H]1[C@@H]2CC[C@]2(C)C(=O)/C(=C/c3cccc(OCCN4CCOCC4)c3)C[C@@H]12 | 15.8 | > 100 | 18.5 | 36.1 | 17.7 | > 100 | 5.62 | 20.9 | 5.21 | 25.5 | 16.1 | 34.4 | 18.7 | > 100 | 3.51 | 15.5 | 10.5 | 23.7 | 6.13 | 19
COC(=O)C#Cc1ccc([N+](=O)[O-])cc1 |  | 8.47 |  | 22.6 |  | 3.79 |  | 4.11 |  | 3.41 |  | 7.98 |  | 2.9 |  | 12.9 |  | 4.08 |  | 7.12

From PubChem BioAssay (NCI)
